Data set [1] concerns NEP. The experiment in a line: in vitro. It counts as in vitro ADME. The conditions noted are these: human, isolated enzyme neprilysin; 30 µM peptide, NEP 1.5 ng, Tris HCl 50 mM, pH 7.5, 4 h, 37 °C, RP-HPLC C18, UV 214 nm; read-out: hydrolysis products after incubation with NEP. How it is done:
Figure 1 Analysis of the susceptibility to hydrolysis of the hypotensins over the vasopeptidases NEP and ACE. Incubations were carried out in Tris HCl 100 mM, NaCl 50 mM and ZnCl2 10 µM, pH 7.0, for the ACE assays, and, for the NEP assays, in Tris HCl 50 mM, pH 7.5 buffer, for four hours at 37 °C. (A) TsHpt-I control (black line) and after incubation with NEP (red line). (B) TsHpt-II control (black line) and TsHpt-II incubated with NEP (red line). (C) TsHpt-I control (black line) and incubated with ACE (red line). (D) TsHpt-II control (black line) and after incubation with ACE (red line). The samples of negative and experimental controls (A) TsHpt-I and (B) TsHpt-II are shown on the left and right, respectively. The hydrolysis products were considered ≤5%. The gradient used was 20% to 60% solvent B in 20 min, and 60% to 100% solvent B in 5 min (flow 1 mL/min, absorbance at 214 nm). Restek Ultra C-18 5 µm column, 250 × 4.6 mm.
The synthetic peptides TsHpt-I and TsHpt-II (30 µM) were incubated with ACE (3.0 ng), in Tris HCl 100 mM, NaCl 50 mM and ZnCl2 10 µM, pH 7.0 buffer, and NEP (1.5 ng), in Tris HCl 50 mM, pH 7.5 buffer, at 37 °C for 4 h. Samples containing only the synthetic peptides were used as the negative control. After incubation, samples were analyzed by reverse phase chromatography on RP-HPLC (Shimadzu, Kyoto, Japan), using a Restek Ultra C-18 column (5 µm, 250 × 4.6 mm). […]

Data set [2] concerns murine peritoneal macrophages. Kind of data set: Cytokine production by murine peritoneal macrophages, CBA method. It counts as cell-based, BALB/c mice. Conditions: 24 h; for release of IL-10, IL-12p70, IFN-γ and MCP-1: 10, 50 and 100 µg/mL, data not shown. The procedure: Figure 4 Cytokine production by murine peritoneal macrophages stimulated in vitro with TsHpt-I and -II. Peritoneal exudate macrophages from naïve BALB/c mice were cultured for 24 h in the presence of TsHpt-I (A,C) and -II (B,D), at concentrations of 10 µg/mL, 50 µg/mL and 100 µg/mL. Cells cultured with medium alone or in the presence of 5 µg/mL LPS were used as negative and positive controls, respectively. The concentrations of TNF (A,B) and IL-6 (C,D) were determined by the CBA method, according to the manufacturer’s instructions. The results represent the mean ± SD of three independent experiments performed in triplicate. * p < 0.05.
Peritoneal exudate cells (BALB/c naïve mice, n = 6) were collected by two washes with 5 mL of RPMI medium. The cells obtained were washed twice with RMPI medium, at 400 g, for 10 min, at 18 °C, and resuspended in R10 medium (RPMI + 10% fetal cow serum). After counting in a Neubauer chamber, in the presence of Trypan blue, the cell concentration was adjusted to 2 × 10^6 cells/mL. Cells were distributed into 96-well culture plates (2 × 10^5 cells/100 µL/well) and incubated for 2 h at 37 °C and 5% CO2. After incubation, non-adherent cells were discarded, and adherent cells (macrophages) were resuspended in R10 medium containing the respective tested stimuli, at different concentrations, in triplicates, in a final volume of 200 µL/well. Cells resuspended in R10 medium were used as a negative control, and cells stimulated with LPS (5 µg/mL) as a positive control. Cells were then incubated for 24 h at 37 °C and 5% CO2. After this period, the culture supernatants were collected and stored at −80 °C, for subsequent dosage of cytokines, and cell viability was determined by MTT assay.
The concentration of pro- and anti-inflammatory cytokines (IL-6, IL-10, IL-12p70, […], MCP-1 and TNF) in the samples incubated with both hypotensins (10 µg/mL, 50 µg/mL and 100 µg/mL) was determined by the CBA method (BD Cytometric Bead Array Mouse Inflammation Kit), according to the manufacturer’s instructions. The samples were acquired in a BD FACSCanto II flow cytometer, and the data were analyzed using BD FCAP Array version 3.0 software.

In data set [3] the test system is normotensive Wistar rats. Conditions: by potentiating bradykinin; cited from earlier work. The text has this: Among the linear peptides we have the hypotensins (TsHpt), identified from TsV proteomic analyzes. Both peptides are made up of 25 amino acid residues that contain two consecutive prolines in their C-terminal portion and a punctual difference between TsHpt-I and -II, which is the residue at position 15, being a glutamine in TsHpt-I and a glutamic acid in TsHpt-II. […] The hypothesis is that the vasodilation effect is related to the releas ...

Data set [4] deals with T1, NEP (Homo sapiens, UniProt P08473).
T1 construct: gift of Prof; Adriana Carmona, Department of Biophysics, UNIFESP-EPM
The experiment in a line: Characterization of NEP inhibition (Ki and mechanism, Lineweaver-Burk). It counts as biochemical. How it is done:
Figure 2 Lineweaver–Burk plot of NEP inhibition by TsHpt-I. The inhibition constant (Ki) was determined using four Abz-RGFK-EDDnp substrate concentrations (4 μM, 6 μM, 8 μM and 10 μM), with variation in the concentration of TsHpt-I (3 μM and 4 μM), keeping the amount of enzyme fixed (1.5 ng). The experiment was performed in triplicate.
To determine the inhibition constant (Ki) of TsHpt-I over NEP, four concentrations of Abz-RGFK (Dnp)-OH (4 µM, 6 µM, 8 µM and 10 µM) and 3 µM and 4 µM of TsHpt-I were tested using 1.5 ng of peptidase in 100 µL of final volume of Tris HCl pH 7.5. The Km value of the substrate used was determined to be 14 µM [27]. Controls without the TsHpt-I were also performed in all assays. The reactions were monitored as described above (item 5.2). The Lineweaver–Burk plot was constructed (1/V × 1/(S)) according to the presented mechanism. The Ki was calculated as described by Segel. All assays were performed in triplicate.

Where [5] appears, read: 100 µg/mL, three independent experiments in triplicate.

No end group written: not given here. A value given as a limit tells only on which side of the number the result lay.

T1 sequence (P08473 2-750): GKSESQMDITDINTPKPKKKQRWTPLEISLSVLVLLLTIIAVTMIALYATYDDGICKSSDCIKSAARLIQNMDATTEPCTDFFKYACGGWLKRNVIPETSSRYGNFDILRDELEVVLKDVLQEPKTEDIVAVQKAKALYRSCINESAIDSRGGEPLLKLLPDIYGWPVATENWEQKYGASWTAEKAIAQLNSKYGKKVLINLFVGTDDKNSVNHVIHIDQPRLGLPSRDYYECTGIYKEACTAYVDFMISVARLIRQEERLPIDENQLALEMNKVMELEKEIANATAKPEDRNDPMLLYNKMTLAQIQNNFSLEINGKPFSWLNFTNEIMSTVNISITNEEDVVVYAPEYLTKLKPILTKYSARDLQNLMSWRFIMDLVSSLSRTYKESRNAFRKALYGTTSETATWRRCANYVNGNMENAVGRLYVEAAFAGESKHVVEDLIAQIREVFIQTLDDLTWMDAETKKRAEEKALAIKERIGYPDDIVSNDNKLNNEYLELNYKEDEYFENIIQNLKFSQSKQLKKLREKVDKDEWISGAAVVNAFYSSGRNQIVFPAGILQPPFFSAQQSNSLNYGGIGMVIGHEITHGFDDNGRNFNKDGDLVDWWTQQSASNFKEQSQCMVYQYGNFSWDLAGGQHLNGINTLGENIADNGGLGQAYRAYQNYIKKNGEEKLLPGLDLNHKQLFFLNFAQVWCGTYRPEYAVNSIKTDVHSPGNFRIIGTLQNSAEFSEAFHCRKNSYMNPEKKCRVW

With AEIDFSGIPEDIIKEIKETNAKPPA [TsHpt-II], in data set [1], the metabolised at 4 h, 30 µM is at most 5%. In data set [2] (setting [5]), the “release of IL-6” value is listed as “induced the release of IL-6” and the “release of TNF” value is recorded as “release of significant levels of TNF”. The “release of IL-10, IL-12p70, IFN-γ and MCP-1” value in data set [2] was “None of the peptides were able to induce the release”.

In the case of AEIDFSGIPEDIIKQIKETNAKPPA [TsHpt-I], the hypotensive activity result in data set [3] is listed as “able to exert hypotensive activity”. In data set [1], the metabolised at 4 h, 30 µM was at most 5%. Besides, the “release of TNF” value in data set [2] (setting [5]) is “release of significant levels of TNF”. Besides, the “release of IL-10, IL-12p70, IFN-γ and MCP-1” value in data set [2] is “None of the peptides were able to induce the release”. For the same sequence, the Ki in data set [4] amounted to 4.35 µM. Besides, in data set [4] (Lineweaver-Burk plot, triplicate), the “mechanism of inhibition of NEP” value is “non-competitive inhibitor”.

The values are drawn from paper PMC8704389, “New Insights into the Hypotensins from Tityus serrulatus Venom: Pro-Inflammatory and Vasopeptidases Modulation Activities” (Toxins, 2021).
